Data on eight compounds can be found in patent US8604055B2, “Substituted benzylamino quinolines as cholesterol ester-transfer protein inhibitors” (Dr. Reddy's Laboratories Ltd., priority 2004, dated 2013).

One may read the melting point as the temperature, or range, at which the solid turns liquid. Usually IC50 stands for the concentration needed to halve the response being measured.

Bounds are passed on as bounds.

One data set deals with T1, Recombinant CETP enzyme (Homo sapiens, UniProt P11597).
T1 construct: purchased Cardiovascular Targets
T1 sequence (P11597 18-493): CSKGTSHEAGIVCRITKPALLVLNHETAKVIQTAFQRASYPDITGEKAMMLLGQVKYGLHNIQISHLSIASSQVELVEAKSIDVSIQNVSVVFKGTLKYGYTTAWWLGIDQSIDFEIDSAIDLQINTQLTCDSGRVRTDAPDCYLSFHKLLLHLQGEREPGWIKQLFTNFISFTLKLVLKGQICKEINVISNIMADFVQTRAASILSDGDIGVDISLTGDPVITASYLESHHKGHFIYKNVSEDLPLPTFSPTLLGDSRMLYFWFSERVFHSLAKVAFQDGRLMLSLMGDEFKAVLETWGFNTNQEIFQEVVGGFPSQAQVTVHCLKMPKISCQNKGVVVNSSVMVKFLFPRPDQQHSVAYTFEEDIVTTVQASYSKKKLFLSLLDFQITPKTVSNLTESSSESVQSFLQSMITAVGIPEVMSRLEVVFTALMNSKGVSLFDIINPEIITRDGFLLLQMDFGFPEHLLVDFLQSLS
Description: In vitro fluorescence-based CETP inhibition assay (BODIPY-CE transfer from donor to acceptor microemulsions). The class given is biochemical. The note with it: recombinant CETP 0.14 ng/μl; transfer of fluorescent cholesteryl ester monitored over 2 hours; vs DMSO controls. The method in brief:
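Recombinant human CETP (0.14 ng/μl final) transfers BODIPY-CE from donor to acceptor microemulsions in buffer with 0.67 ug/mL human HDL. Fluorescence (ex 492/em 516 nm) monitored over 2 h and activity expressed as % of DMSO control. IC50 from activity curves; also run with 3% human serum albumin.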

The compound `CCN(CC1CCC1)c1nc2c(cnn2CC)cc1CN(Cc1cc(C(F)(F)F)cc(C(F)(F)F)c1)c1nnn(C)n1` [Example 15, (5-{[(3,5-bis-trifluoromethyl-benzyl)-(2-methyl-2H-tetrazol-5-yl)-amino]-methyl}-1-ethyl-1H-pyrazolo[3,4-b]-yridin-6-yl)-cyclobutylmethyl-ethyl-amine] returned a melting point of 76 to 77 °C. In addition, at Recombinant CETP enzyme, the IC50 was at most 1000 nM.
As to `CCN(CC1CCCC1)c1nc2c(cc1CN(Cc1cc(C(F)(F)F)cc(C(F)(F)F)c1)c1nc(C(F)(F)F)co1)c(C)nn2C` [Example 22, (5-{[(3,5-bis-trifluoromethyl-benzyl)-(4-trifluoromethyl-oxazol-2-yl)-amino]-methyl}-1,3-dimethyl-1H-pyrazolo[3,4-b]-pyridin-6-yl)-cyclopentylmethyl-ethyl-amine], the melting point is 139 °C. Moreover, at Recombinant CETP enzyme, the IC50 is at most 1000 nM.
As for `CCN(CC1CCCC1)c1nc2ccccc2cc1CN(Cc1cc(C(F)(F)F)cc(C(F)(F)F)c1)c1nnn(C)n1` [Example 52], the melting point worked out at 97 °C. Moreover, at Recombinant CETP enzyme, the IC50 is at most 1000 nM.
`CCN(CC1CCCC1)c1nc2ccccc2cc1CN(Cc1cc(C(F)(F)F)cc(C(F)(F)F)c1)c1nnnn1C` [Example 53, (3-{[(3,5-bis-trifluoromethyl-benzyl)-(1-methyl-1H-tetrazol-5-yl)-amino]-methyl}-quinolin-2-yl)-cyclopentylmethyl-ethyl-amine] returned a melting point of 110 °C. Moreover, the IC50 on Recombinant CETP enzyme is at most 5000 nM.
As for `Cc1cccc2cc(CN(Cc3cc(C(F)(F)F)cc(C(F)(F)F)c3)c3nnn(C)n3)c(N(CC3CC3)CC3CC3)nc12` [Example 57], the melting point was 63 °C. On Recombinant CETP enzyme, the IC50 is at most 1000 nM.
In the same order, the values of `CCN(CC1CCCC1)c1nc2ccccc2cc1CN(Cc1cc(C(F)(F)F)cc(C(F)(F)F)c1)c1nnc(C)o1` [Example 58, (3-{[(3,5-bis-trifluoromethyl-benzyl)-(5-methyl-[1,3,4]oxodiazol-2-yl)-amino]-methyl)-quinolin-2-yl)-cyclopentylmethyl-ethyl-amine] are 126 to 127 °C and at most 5000 nM.
In the same order, the values of `CCN(CC1CCCC1)c1nc2ccccc2cc1CN(Cc1cc(C(F)(F)F)cc(C(F)(F)F)c1)C(N)=O` [Example 59, 1-(3,5 bistrifluoromethyl-benzyl)-1-[(2-cyclopentylmethyl-ethyl-amino)-quinoline-3-ylmethyl]-urea] are 92 to 94 °C and at most 5000 nM.
`CCOC(=N)N(Cc1cc(C(F)(F)F)cc(C(F)(F)F)c1)Cc1cc2ccccc2nc1N(CC)CC1CCCC1` [Example 61] displayed a melting point of 158 to 160 °C. Besides, on Recombinant CETP enzyme, the IC50 is at most 5000 nM.
